Source: PubChem BioAssay AID328 (DTP/NCI, 2004)
“And” between values parts separate entries of the source, which are not always exact repeats. Equal values may be shown once. Inconclusive results and toxic doses are left out.

Tested on: BDF1 mice, P388 leukemia ip, median survival T/C
Experiment: NCI In Vivo Anticancer Drug Screen. Data for tumor model P388 Leukemia (intraperitoneal) in B6D2F1 (BDF1) mice
Conditions: endpoint: median survival time, higher = longer survival
Outline: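 In tumour-bearing mice, survival after compound treatment is set against the vehicle group and given as a quotient.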

[1] = dose: 25.0 mg/kg/injection, schedule: Q04DX003 (ip), vehicle: saline
[2] = dose: 50.0 mg/kg/injection, schedule: Q01DX009 (ip), vehicle: saline
[3] = dose: 50.0 mg/kg/injection, schedule: Q04DX003 (ip), vehicle: saline
[4] = dose: 100.0 mg/kg/injection, schedule: Q01DX009 (ip), vehicle: saline
[5] = dose: 100.0 mg/kg/injection, schedule: Q04DX003 (ip), vehicle: saline
[6] = dose: 50.0 mg/kg/injection, schedule: Q01DX009 (ip), vehicle: Klucel (hydroxypropylcellulose) (HPC)
[7] = dose: 50.0 mg/kg/injection, schedule: Q04DX003 (ip), vehicle: Klucel (hydroxypropylcellulose) (HPC)
[8] = dose: 100.0 mg/kg/injection, schedule: Q01DX009 (ip), vehicle: Klucel (hydroxypropylcellulose) (HPC)
[9] = dose: 200.0 mg/kg/injection, schedule: Q01DX009 (ip), vehicle: Klucel (hydroxypropylcellulose) (HPC)
[10] = dose: 200.0 mg/kg/injection, schedule: Q04DX003 (ip), vehicle: Klucel (hydroxypropylcellulose) (HPC)
[11] = dose: 100.0 mg/kg/injection, schedule: Q01DX009 (ip), vehicle: saline with Tween-80
[12] = dose: 200.0 mg/kg/injection, schedule: Q01DX009 (ip), vehicle: saline with Tween-80
[13] = dose: 400.0 mg/kg/injection, schedule: Q01DX009 (ip), vehicle: saline with Tween-80
[14] = dose: 100.0 mg/kg/injection, schedule: Q04DX003 (ip), vehicle: saline with Tween-80
[15] = dose: 200.0 mg/kg/injection, schedule: Q04DX003 (ip), vehicle: saline with Tween-80
[16] = dose: 400.0 mg/kg/injection, schedule: Q04DX003 (ip), vehicle: saline with Tween-80
[17] = dose: 50.0 mg/kg/injection, schedule: Q01DX009 (ip), vehicle: saline with Tween-80
[18] = dose: 25.0 mg/kg/injection, schedule: Q01DX009 (ip), vehicle: saline with Tween-80
[19] = dose: 25.0 mg/kg/injection, schedule: Q01DX009 (ip), vehicle: Klucel (hydroxypropylcellulose) (HPC)
[20] = dose: 400.0 mg/kg/injection, schedule: Q01DX009 (ip), vehicle: Klucel (hydroxypropylcellulose) (HPC)
[21] = dose: 100.0 mg/kg/injection, schedule: Q04DX003 (ip), vehicle: Klucel (hydroxypropylcellulose) (HPC)
[22] = dose: 12.5 mg/kg/injection, schedule: Q04DX003 (ip), vehicle: saline

## Cc1n(Cc2ccccc2)c2c([n+]1C)C(=O)c1ccccc1C2=O
dose: 0.5 mg/kg/injection, schedule: Q01DX010 (ip), vehicle: saline
  T/C: 100 % of control
dose: 1.0 mg/kg/injection, schedule: Q01DX010 (ip), vehicle: saline
  T/C: 109 % of control
dose: 2.0 mg/kg/injection, schedule: Q01DX010 (ip), vehicle: saline
  T/C: 113 % of control
dose: 125.0 micrograms/kg/injection, schedule: Q01DX009 (ip), vehicle: Klucel (hydroxypropylcellulose) (HPC)
  T/C: 105 % of control
dose: 250.0 micrograms/kg/injection, schedule: Q01DX009 (ip), vehicle: Klucel (hydroxypropylcellulose) (HPC)
  T/C: 100 % of control
dose: 500.0 micrograms/kg/injection, schedule: Q01DX009 (ip), vehicle: Klucel (hydroxypropylcellulose) (HPC)
  T/C: 110 % of control
dose: 1000.0 micrograms/kg/injection, schedule: Q01DX009 (ip), vehicle: Klucel (hydroxypropylcellulose) (HPC)
  T/C: 115 % of control
dose: 2000.0 micrograms/kg/injection, schedule: Q01DX009 (ip), vehicle: Klucel (hydroxypropylcellulose) (HPC)
  T/C: 120 % of control

## CCCCCCCC(=O)N/N=C(\CO)[C@]1(O)Cc2c(O)c3c(c(O)c2[C@@H](OC2CC(N)C(O)C(C)O2)C1)C(=O)c1c(OC)cccc1C3=O (stereo partly drawn)
dose: 0.78 mg/kg/injection, schedule: Q01DX009 (ip), vehicle: water
  T/C: 114 % of control
dose: 1.56 mg/kg/injection, schedule: Q01DX009 (ip), vehicle: water
  T/C: 183 % of control
dose: 3.12 mg/kg/injection, schedule: Q01DX009 (ip), vehicle: water
  T/C: 106 % of control and 222 % of control
dose: 6.25 mg/kg/injection, schedule: Q01DX009 (ip), vehicle: water
  T/C: 163 % of control and 200 % of control
dose: 12.5 mg/kg/injection, schedule: Q01DX009 (ip), vehicle: water
  T/C: 117 % of control and 204 % of control
dose: 25.0 mg/kg/injection, schedule: Q01DX009 (ip), vehicle: water
  T/C: 104 % of control

## CCN(CC)CCSC(=O)C(O)(c1ccccc1)C1CCCC1 (stereo not drawn)
dose: 25.0 mg/kg/injection, schedule: Q01DX009 (ip), vehicle: saline
  T/C: 109 % of control
[1]
  T/C: 109 % of control
[2]
  T/C: 95 % of control
[3]
  T/C: 104 % of control
[4]
  T/C: 113 % of control
[5]
  T/C: 109 % of control

## CCN(CC)C(=O)c1ccc([N+](=O)[O-])cc1
[6]
  T/C: 103 % of control
[7]
  T/C: 95 % of control
[8]
  T/C: 100 % of control
[9]
  T/C: 89 % of control
[10]
  T/C: 104 % of control

## CC1OC(OCc2cc(O)c3c(c2)C(C2OC(CO)C(O)C(O)C2O)c2cccc(O)c2C3=O)C(O)C(O)C1O (stereo not drawn)
dose: 50.0 mg/kg/injection, schedule: Q04DX003 (ip), vehicle: water
  T/C: 105 % of control
dose: 100.0 mg/kg/injection, schedule: Q04DX003 (ip), vehicle: water
  T/C: 101 % of control
dose: 200.0 mg/kg/injection, schedule: Q04DX003 (ip), vehicle: water
  T/C: 90 % of control

## COc1ccc(C(=O)C[N+](=O)[O-])cc1
[11]
  T/C: 110 % of control
[12]
  T/C: 100 % of control
[13]
  T/C: 100 % of control

## C(=Nc1ccc(-c2ccccc2)cc1)c1ccccc1
[14]
  T/C: 100 % of control
[15]
  T/C: 100 % of control
[16]
  T/C: 100 % of control

## CCOC(=O)C(O)(NC(=O)N/N=C/c1ccccc1)C(=O)OCC
[14]
  T/C: 104 % of control
[15]
  T/C: 112 % of control
[16]
  T/C: 91 % of control

## COc1ccc(N=C2C(=O)Nc3ccc(Br)cc32)cc1
[17]
  T/C: 100 % of control
[11]
  T/C: 105 % of control
[12]
  T/C: 104 % of control
[13]
  T/C: 104 % of control

## CCOC(=O)CSc1sc(C(=O)OCC)c(N)c1C#N
dose: 12.5 mg/kg/injection, schedule: Q01DX009 (ip), vehicle: saline with Tween-80
  T/C: 99 % of control
[18]
  T/C: 99 % of control
[17]
  T/C: 99 % of control

## CC(=O)OC1CCC2(C)C(CC(=O)C(C)C2(O)CCc2ccoc2)C1(C)C (stereo not drawn)
dose: 25.0 mg/kg/injection, schedule: Q01DX009 (ip), vehicle: saline + alcohol
  T/C: 91 % of control
dose: 50.0 mg/kg/injection, schedule: Q01DX009 (ip), vehicle: saline + alcohol
  T/C: 112 % of control
dose: 100.0 mg/kg/injection, schedule: Q01DX009 (ip), vehicle: saline + alcohol
  T/C: 112 % of control

## CCOC(=O)Oc1c(OC)cc(C(=O)O[C@@H]2C[C@@H]3CN4CCc5c([nH]c6cc(OC)ccc56)[C@H]4C[C@@H]3[C@H](C(=O)OC)[C@H]2OC)cc1OC
[18]
  T/C: 100 % of control

## O=C(NC(=O)c1c(F)cccc1F)Nc1ccc2[nH]ccc2c1
[18]
  T/C: 100 % of control
[17]
  T/C: 100 % of control
[11]
  T/C: 93 % of control

## Cc1c(N)nc(Br)c2ccccc12
dose: 100.0 mg/kg/injection, schedule: Q04DX003 (ip), vehicle: saline sonified
  T/C: 91 % of control
dose: 200.0 mg/kg/injection, schedule: Q04DX003 (ip), vehicle: saline sonified
  T/C: 116 % of control

## CCc1nnc2ncccn12
[2]
  T/C: 97 % of control and 102 % of control and 104 % of control
[4]
  T/C: 104 % of control and 107 % of control
dose: 200.0 mg/kg/injection, schedule: Q01DX009 (ip), vehicle: saline
  T/C: 91 % of control and 100 % of control

## O=C(Nc1ccccc1F)Nc1ccccc1Cl
[19]
  T/C: 110 % of control and 112 % of control
[6]
  T/C: 86 % of control and 105 % of control
[8]
  T/C: 101 % of control and 110 % of control
[9]
  T/C: 97 % of control and 120 % of control
[20]
  T/C: 106 % of control and 107 % of control and 117 % of control

## O=C(c1ccc(C(=O)N2CC2)cc1)N1CC1
dose: 5.0 mg/kg/injection, schedule: Q01DX009 (ip), vehicle: saline with Tween-80
  T/C: 95 % of control
dose: 20.0 mg/kg/injection, schedule: Q01DX009 (ip), vehicle: saline with Tween-80
  T/C: 109 % of control

## Clc1cccc(-c2nc3ccccc3c3ccccc23)c1
[11]
  T/C: 105 % of control
[12]
  T/C: 120 % of control
[13]
  T/C: 95 % of control

## O=C(Nc1ccc2c(c1)OCO2)O/N=C\c1ccccn1
[14]
  T/C: 118 % of control
[15]
  T/C: 95 % of control
[16]
  T/C: 100 % of control

## CN(C)C=Nc1ccc2c3c(cccc13)CC2
dose: 6.25 mg/kg/injection, schedule: Q01DX009 (ip), vehicle: Klucel (hydroxypropylcellulose) (HPC)
  T/C: 103 % of control
dose: 12.5 mg/kg/injection, schedule: Q01DX009 (ip), vehicle: Klucel (hydroxypropylcellulose) (HPC)
  T/C: 99 % of control
dose: 16.6 mg/kg/injection, schedule: Q01DX009 (ip), vehicle: Klucel (hydroxypropylcellulose) (HPC)
  T/C: 115 % of control
[19]
  T/C: 114 % of control

## O=C(c1ccccc1)N(Nc1ccccc1)c1ccccc1
[8]
  T/C: 95 % of control
[21]
  T/C: 100 % of control
[9]
  T/C: 109 % of control
[10]
  T/C: 100 % of control
[20]
  T/C: 95 % of control
dose: 400.0 mg/kg/injection, schedule: Q04DX003 (ip), vehicle: Klucel (hydroxypropylcellulose) (HPC)
  T/C: 100 % of control

## O=C(O)C1CCC2CCCCC2[N-]1.O=C(O)C1CCC2CCCCC2[N-]1.[Cu+2] (stereo not drawn)
dose: 6.25 mg/kg/injection, schedule: Q04DX003 (ip), vehicle: saline
  T/C: 100 % of control
[22]
  T/C: 90 % of control
[1]
  T/C: 100 % of control

## O=[N+]([O-])C(c1ccccc1)C(c1ccccc1)C(c1ccccc1)[N+](=O)[O-] (stereo not drawn)
dose: 50.0 mg/kg/injection, schedule: Q01DX005 (ip), vehicle: saline with Tween-80
  T/C: 103 % of control
dose: 100.0 mg/kg/injection, schedule: Q01DX005 (ip), vehicle: saline with Tween-80
  T/C: 87 % of control
dose: 200.0 mg/kg/injection, schedule: Q01DX005 (ip), vehicle: saline with Tween-80
  T/C: 91 % of control

## Oc1ccc(CNCCNCCNCc2ccc(O)cc2)cc1
[22]
  T/C: 100 % of control
[1]
  T/C: 107 % of control
[3]
  T/C: 109 % of control
[5]
  T/C: 100 % of control
dose: 200.0 mg/kg/injection, schedule: Q04DX003 (ip), vehicle: saline
  T/C: 105 % of control

## COc1ccc(N=O)c(O)c1
[19]
  T/C: 100 % of control and 109 % of control
dose: 25.0 mg/kg/injection, schedule: Q01DX010 (ip), vehicle: carboxymethylcellulose (CMC)
  T/C: 110 % of control
dose: 25.0 mg/kg/injection, schedule: Q04DX003 (ip), vehicle: Klucel (hydroxypropylcellulose) (HPC)
  T/C: 115 % of control
[6]
  T/C: 100 % of control and 109 % of control
dose: 50.0 mg/kg/injection, schedule: Q01DX010 (ip), vehicle: carboxymethylcellulose (CMC)
  T/C: 115 % of control
[7]
  T/C: 110 % of control
[8]
  T/C: 113 % of control and 118 % of control
[21]
  T/C: 110 % of control
